Activity calls are given as the source filed them.
Tests used:
[1] = target: T1, Replicative DNA helicase DnaB (Mycobacterium tuberculosis, UniProt P9WMR3); assay: DnaB intein splicing inhibitors, dose response, biochemical, cell-free fluorescence (AID 449749); format: functional
T1 sequence (P9WMR3 whole entry): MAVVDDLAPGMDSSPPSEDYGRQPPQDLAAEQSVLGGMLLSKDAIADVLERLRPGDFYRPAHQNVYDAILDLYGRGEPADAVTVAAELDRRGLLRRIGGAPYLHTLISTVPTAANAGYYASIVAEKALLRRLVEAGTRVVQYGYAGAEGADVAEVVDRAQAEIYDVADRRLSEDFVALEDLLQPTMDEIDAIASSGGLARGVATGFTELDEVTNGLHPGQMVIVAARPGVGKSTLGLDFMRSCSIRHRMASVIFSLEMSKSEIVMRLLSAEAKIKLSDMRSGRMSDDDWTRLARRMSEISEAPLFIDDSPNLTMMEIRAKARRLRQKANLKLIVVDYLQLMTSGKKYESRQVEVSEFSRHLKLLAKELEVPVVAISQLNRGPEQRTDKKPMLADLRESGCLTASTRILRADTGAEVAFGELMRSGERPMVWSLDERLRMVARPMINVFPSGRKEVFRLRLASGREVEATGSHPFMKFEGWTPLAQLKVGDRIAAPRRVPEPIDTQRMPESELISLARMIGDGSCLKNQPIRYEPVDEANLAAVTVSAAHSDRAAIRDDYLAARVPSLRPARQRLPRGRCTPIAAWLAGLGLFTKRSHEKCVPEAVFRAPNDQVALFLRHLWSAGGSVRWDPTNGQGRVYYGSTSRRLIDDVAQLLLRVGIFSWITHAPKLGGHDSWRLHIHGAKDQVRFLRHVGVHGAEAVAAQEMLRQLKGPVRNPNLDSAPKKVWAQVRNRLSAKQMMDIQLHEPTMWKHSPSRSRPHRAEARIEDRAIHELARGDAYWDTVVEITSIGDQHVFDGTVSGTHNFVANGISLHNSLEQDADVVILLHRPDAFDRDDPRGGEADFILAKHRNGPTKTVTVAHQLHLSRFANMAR

[2] = THP-1 cell cytotoxicity, dose response, cytotoxicity control for non-replicating M. tuberculosis project (AID 489025); format: functional
Streptokinase A = target: T2, Streptokinase A (Streptococcus pyogenes serotype M1, UniProt P10520); assay: viability-normalized secreted streptokinase activity reduction – plasminogen activation absorbance, OD405, dose response (AID 1914); format: functional, Streptococcus pyogenes M1 GAS;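 further: secreted streptokinase activity via plasminogen activation per viability signal from cell pellet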
T2 sequence (P10520 whole entry): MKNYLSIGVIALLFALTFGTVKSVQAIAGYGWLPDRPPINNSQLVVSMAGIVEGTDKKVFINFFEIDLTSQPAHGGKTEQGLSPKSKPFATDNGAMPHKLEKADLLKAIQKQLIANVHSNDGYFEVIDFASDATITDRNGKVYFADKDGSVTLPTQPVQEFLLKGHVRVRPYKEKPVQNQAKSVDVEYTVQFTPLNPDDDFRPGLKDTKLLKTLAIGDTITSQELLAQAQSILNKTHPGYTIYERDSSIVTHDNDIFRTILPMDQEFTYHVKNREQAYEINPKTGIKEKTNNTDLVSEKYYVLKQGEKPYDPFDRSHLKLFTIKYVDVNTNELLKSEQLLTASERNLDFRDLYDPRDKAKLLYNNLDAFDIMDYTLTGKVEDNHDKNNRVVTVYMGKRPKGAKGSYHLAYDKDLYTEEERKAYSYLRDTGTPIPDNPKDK

cells = format: functional
[3] = target: Dual specificity tyrosine-phosphorylation-regulated kinase 1A (Homo sapiens, UniProt Q13627); format: functional;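 further: measured against DYRK1A as one member of a broad kinome profiling panel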
[4] = target: Dual specificity mitogen-activated protein kinase kinase 2 (Homo sapiens, UniProt P36507); assay: Navigating the Kinome. Panel member name: MAP2K2; format: functional
Chain of Dual specificity mitogen-activated protein kinase kinase 2 (P36507 whole entry): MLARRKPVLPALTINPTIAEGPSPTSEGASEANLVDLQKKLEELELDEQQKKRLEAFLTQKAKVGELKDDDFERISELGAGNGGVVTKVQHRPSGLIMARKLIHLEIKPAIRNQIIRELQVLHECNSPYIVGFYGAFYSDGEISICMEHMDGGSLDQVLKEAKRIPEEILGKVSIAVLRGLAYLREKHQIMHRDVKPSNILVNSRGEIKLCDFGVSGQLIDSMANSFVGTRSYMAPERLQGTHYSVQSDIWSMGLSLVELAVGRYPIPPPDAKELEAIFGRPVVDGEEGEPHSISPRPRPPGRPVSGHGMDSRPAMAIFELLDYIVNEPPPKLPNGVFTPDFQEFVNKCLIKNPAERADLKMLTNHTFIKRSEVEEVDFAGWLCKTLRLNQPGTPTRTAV

[5] = target: Glycogen synthase kinase-3 alpha (Homo sapiens, UniProt P49840); format: functional;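 further: GSK3A result taken from a broad kinome-wide kinase panel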
Chain of Glycogen synthase kinase-3 alpha (P49840 whole entry): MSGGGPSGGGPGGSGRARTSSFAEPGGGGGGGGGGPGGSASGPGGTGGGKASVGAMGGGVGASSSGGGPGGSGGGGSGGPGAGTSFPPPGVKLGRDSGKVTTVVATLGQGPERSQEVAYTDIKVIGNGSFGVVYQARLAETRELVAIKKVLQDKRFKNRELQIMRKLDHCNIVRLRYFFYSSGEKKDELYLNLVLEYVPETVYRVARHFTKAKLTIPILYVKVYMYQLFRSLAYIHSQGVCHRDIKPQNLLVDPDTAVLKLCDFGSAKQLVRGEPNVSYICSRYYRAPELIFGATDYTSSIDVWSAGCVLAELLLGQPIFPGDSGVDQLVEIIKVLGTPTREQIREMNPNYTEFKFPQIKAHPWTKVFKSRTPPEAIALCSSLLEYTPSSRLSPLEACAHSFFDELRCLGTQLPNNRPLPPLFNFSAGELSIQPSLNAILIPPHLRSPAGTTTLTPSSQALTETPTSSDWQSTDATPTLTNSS

[6] = target: Dual specificity protein kinase CLK4 (Homo sapiens, UniProt Q9HAZ1); format: functional
[7] = target: Insulin-like growth factor 1 receptor (Homo sapiens, UniProt P08069); assay: Navigating the Kinome. Panel member name: IGF1R; format: functional
[8] = target: Fibroblast growth factor receptor 1 (Homo sapiens, UniProt P11362); format: functional
Chain of Fibroblast growth factor receptor 1 (P11362 whole entry): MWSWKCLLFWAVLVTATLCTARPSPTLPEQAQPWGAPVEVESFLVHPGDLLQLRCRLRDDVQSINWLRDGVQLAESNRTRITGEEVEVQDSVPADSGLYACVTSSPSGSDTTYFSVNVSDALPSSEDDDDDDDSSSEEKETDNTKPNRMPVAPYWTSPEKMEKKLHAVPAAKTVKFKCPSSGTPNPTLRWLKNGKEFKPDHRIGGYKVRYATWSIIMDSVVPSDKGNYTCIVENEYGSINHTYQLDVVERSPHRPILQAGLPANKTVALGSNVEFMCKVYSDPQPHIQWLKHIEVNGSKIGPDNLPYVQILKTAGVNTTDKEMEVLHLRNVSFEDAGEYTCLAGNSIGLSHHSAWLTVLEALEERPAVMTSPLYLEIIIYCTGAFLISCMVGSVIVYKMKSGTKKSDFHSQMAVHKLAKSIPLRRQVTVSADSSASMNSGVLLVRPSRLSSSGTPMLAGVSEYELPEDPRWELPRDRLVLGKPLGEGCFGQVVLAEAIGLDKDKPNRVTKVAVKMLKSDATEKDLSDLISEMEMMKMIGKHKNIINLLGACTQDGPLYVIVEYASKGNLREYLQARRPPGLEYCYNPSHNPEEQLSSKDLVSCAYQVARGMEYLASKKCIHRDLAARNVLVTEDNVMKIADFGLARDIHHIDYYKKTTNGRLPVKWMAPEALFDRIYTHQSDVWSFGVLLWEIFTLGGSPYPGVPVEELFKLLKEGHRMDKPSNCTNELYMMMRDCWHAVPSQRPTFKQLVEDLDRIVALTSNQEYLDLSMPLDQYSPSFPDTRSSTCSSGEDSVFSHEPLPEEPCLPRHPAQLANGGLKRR

[9] = target: Cyclin-dependent kinase 7 (Homo sapiens, UniProt P50613); format: functional;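 further: value comes from a kinome-wide kinase profiling panel in which CDK7 is one member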
Chain of Cyclin-dependent kinase 7 (P50613 whole entry): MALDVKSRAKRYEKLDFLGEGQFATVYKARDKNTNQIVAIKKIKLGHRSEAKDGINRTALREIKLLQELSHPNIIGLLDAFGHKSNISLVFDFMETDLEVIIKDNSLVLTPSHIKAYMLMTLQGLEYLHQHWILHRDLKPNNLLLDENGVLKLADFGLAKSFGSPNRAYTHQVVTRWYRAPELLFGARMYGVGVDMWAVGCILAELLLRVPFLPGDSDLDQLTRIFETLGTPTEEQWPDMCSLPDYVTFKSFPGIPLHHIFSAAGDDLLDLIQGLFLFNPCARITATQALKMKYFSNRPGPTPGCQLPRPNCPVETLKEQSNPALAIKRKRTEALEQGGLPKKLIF

[10] = target: Serine/threonine-protein kinase pim-1 (Homo sapiens, UniProt P11309); format: functional
Chain of Serine/threonine-protein kinase pim-1 (P11309 whole entry): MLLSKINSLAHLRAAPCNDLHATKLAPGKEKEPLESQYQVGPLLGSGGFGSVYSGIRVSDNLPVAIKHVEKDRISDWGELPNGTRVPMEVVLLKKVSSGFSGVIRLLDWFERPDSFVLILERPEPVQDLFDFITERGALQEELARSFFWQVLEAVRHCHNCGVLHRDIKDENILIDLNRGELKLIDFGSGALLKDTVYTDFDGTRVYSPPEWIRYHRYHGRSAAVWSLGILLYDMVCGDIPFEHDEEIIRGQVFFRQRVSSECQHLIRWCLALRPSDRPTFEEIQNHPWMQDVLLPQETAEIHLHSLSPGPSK

[11] = target: Leucine-rich repeat serine/threonine-protein kinase 2 (Homo sapiens, UniProt Q5S007); format: functional;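 further: value from a broad kinome-wide panel profiling study in which LRRK2 was one of the kinases tested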
[12] = target: ALK tyrosine kinase receptor (Homo sapiens, UniProt Q9UM73); format: functional;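 further: ALK tested as one member of a kinase panel screen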
Activin receptor type-1 = target: T3, Activin receptor type-1 (Homo sapiens, UniProt Q04771); assay: Navigating the Kinome. Panel member name: ACVR1; format: functional
T3 sequence (Q04771 whole entry): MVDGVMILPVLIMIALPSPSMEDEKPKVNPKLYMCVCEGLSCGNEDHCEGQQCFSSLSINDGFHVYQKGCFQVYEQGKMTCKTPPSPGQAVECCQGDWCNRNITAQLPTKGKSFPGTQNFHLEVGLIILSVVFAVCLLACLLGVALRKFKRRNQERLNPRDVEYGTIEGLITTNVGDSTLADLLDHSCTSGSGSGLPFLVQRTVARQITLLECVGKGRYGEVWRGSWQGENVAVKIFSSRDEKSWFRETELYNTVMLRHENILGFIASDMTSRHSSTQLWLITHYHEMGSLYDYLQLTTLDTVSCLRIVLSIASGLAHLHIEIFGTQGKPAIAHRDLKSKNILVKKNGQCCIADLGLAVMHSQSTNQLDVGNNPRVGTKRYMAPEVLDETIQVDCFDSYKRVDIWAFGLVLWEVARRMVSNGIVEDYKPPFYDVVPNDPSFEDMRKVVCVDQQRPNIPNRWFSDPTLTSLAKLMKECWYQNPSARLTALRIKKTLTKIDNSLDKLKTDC

[13] = target: Mitogen-activated protein kinase kinase kinase kinase 4 (Homo sapiens, UniProt O95819); format: functional
Chain of Mitogen-activated protein kinase kinase kinase kinase 4 (O95819 whole entry): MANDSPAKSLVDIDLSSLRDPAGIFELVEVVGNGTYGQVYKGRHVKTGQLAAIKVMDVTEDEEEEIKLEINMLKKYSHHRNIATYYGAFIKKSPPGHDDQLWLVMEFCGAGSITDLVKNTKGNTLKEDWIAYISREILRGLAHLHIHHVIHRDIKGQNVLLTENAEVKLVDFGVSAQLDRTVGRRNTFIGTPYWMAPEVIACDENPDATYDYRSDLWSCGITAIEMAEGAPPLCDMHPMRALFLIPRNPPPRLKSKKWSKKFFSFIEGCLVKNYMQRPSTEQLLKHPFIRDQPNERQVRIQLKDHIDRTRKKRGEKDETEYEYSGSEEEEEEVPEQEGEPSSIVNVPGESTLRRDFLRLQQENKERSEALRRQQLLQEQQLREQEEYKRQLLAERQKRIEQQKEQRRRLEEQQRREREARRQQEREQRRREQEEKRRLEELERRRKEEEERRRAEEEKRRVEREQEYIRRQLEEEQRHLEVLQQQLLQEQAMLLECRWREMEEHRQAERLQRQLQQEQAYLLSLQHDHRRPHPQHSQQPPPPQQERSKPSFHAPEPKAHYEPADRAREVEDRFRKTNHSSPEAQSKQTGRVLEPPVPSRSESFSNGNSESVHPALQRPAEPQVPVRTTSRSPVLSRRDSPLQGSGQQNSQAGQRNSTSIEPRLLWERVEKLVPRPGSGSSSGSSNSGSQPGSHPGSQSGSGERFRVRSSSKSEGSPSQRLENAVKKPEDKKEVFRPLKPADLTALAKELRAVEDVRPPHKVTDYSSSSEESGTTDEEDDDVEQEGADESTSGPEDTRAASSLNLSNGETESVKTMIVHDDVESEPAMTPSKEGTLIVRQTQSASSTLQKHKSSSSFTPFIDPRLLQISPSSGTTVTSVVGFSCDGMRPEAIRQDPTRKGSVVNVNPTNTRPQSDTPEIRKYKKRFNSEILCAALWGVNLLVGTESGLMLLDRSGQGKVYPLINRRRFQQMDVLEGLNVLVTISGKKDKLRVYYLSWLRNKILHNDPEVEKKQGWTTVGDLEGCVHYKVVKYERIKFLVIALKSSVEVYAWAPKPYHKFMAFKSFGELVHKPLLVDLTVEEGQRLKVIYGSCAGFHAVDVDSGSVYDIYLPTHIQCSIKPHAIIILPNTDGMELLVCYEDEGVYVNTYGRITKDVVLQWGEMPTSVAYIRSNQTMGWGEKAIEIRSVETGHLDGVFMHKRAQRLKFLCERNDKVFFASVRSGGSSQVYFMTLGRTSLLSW

[14] = target: Macrophage-stimulating protein receptor (Homo sapiens, UniProt Q04912); assay: Navigating the Kinome. Panel member name: MST1R; format: functional
Chain of Macrophage-stimulating protein receptor (Q04912 25-304 limits assumed): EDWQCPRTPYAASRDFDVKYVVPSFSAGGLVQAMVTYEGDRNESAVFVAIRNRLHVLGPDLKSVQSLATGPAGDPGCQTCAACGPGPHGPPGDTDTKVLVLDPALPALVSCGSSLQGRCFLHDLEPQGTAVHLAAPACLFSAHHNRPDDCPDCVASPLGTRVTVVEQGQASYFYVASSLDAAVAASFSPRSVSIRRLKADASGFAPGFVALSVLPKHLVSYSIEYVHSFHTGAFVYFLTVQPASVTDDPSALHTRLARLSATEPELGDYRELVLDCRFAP
Chain of Macrophage-stimulating protein receptor (Q04912 310-1400 limits assumed): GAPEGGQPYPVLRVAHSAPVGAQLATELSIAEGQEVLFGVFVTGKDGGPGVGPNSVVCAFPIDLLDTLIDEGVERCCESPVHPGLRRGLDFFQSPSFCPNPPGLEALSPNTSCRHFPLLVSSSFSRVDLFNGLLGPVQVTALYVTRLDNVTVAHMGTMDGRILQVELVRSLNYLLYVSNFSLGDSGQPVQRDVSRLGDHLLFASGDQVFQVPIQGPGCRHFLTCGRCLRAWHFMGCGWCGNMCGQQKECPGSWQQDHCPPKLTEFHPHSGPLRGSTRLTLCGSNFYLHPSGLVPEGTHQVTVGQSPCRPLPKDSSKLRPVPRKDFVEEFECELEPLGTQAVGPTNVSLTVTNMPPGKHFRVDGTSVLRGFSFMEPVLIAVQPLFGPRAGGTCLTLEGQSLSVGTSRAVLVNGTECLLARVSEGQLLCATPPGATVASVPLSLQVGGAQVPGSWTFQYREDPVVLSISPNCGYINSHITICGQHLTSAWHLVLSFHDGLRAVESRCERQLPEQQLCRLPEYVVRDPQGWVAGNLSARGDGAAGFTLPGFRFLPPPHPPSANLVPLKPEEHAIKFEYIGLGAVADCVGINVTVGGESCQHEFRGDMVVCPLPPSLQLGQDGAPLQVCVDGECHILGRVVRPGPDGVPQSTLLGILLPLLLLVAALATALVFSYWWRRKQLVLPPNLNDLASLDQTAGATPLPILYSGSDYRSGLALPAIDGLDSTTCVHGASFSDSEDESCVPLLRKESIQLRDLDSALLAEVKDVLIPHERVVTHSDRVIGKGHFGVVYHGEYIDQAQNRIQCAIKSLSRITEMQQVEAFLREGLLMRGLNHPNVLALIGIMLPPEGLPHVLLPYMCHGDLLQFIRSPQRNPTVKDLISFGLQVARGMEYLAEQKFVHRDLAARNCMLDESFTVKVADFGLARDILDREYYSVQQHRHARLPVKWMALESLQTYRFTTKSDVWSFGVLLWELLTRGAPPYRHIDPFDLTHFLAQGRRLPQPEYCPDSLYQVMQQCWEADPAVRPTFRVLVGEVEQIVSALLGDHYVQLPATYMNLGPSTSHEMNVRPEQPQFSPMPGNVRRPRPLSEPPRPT

[15] = target: Dual specificity tyrosine-phosphorylation-regulated kinase 1B (Homo sapiens, UniProt Q9Y463); assay: Navigating the Kinome. Panel member name: DYRK1B; format: functional
[16] = target: Serine/threonine-protein kinase TAO1 (Homo sapiens, UniProt Q7L7X3); format: functional

For CCOC(=O)c1ccc(NC2=CC(=O)C(=O)c3ccccc32)cc1, the AC50 [1] was > 380 µM (inactive), the CC50 [2] was 15.2 µM (active) and the EC50 (Streptokinase A) was 9.93 µM (active). The IC50 (cells) was 19.2 µM (active).
In the case of OC(CNCCC1C=Nc2ccccc21)Cn1c2ccc(Cl)cc2c2cc(Cl)ccc21 (stereo not drawn), the AC50 [1] is reported as 6.51 µM (active).
With CCCCCCCCCCCCCCCC[N+](C)(C)C the AC50 [1] was 4.78 µM (active) and the EC50 (Streptokinase A) was 19.6 µM (active).
In the case of NC1CCC(Nc2nc(Cl)cc(-c3c[nH]c4ncccc34)n2)CC1 (stereo not drawn), the Ki [3] is reported as 0.0251 µM (active), the pKi [3] is reported as 7.6 and the Ki [4] is reported as 0.0316 µM (active). The pKi [4] was 7.5, the Ki [5] was 0.398 µM (active) and the pKi [5] was 6.4. The Ki [6] was 0.001 µM (active), the pKi [6] was 9 and the Ki [7] was > 2.51 µM (inactive). The Ki [8] was 3.98 µM (active), the pKi [8] was 5.4 and the Ki [9] was 0.0501 µM (active). The pKi [9] was 7.3, the Ki [10] was 0.126 µM (active) and the pKi [10] was 6.9. The Ki [11] was 0.002 µM (active), the pKi [11] was 8.7 and the Ki [12] was 0.631 µM (active). For the same molecule, the pKi [12] was 6.2, the Ki (Activin receptor type-1) was 0.631 µM (active) and the pKi (Activin receptor type-1) was 6.2. For the same molecule, the Ki [13] was 0.02 µM (active), the pKi [13] was 7.7 and the Ki [14] was 0.0631 µM (active). The pKi [14] was 7.2, the Ki [15] was 0.0158 µM (active) and the pKi [15] was 7.8. For the same molecule, the Ki [16] was > 6.31 µM (inactive).
In the case of O=C(O)C1CN(Cc2ccc(OCc3ccccc3)cc2Cl)C1, the Ki [3] is reported as > 2 µM (inactive), the Ki [4] is reported as > 3.98 µM (inactive) and the Ki [5] is reported as > 3.98 µM (inactive). The Ki [6] was > 2.51 µM (inactive), the Ki [7] was > 2.51 µM (inactive) and the Ki [8] was > 3.98 µM (inactive). For the same molecule, the Ki [9] was > 3.98 µM (inactive), the Ki [10] was > 6.31 µM (inactive) and the Ki [11] was > 2.51 µM (inactive). The Ki [12] was > 6.31 µM (inactive), the Ki (Activin receptor type-1) was 0.126 µM (active) and the Ki [13] was > 5.01 µM (inactive). For the same molecule, the Ki [14] was > 3.98 µM (inactive), the Ki [15] was > 2.51 µM (inactive) and the Ki [16] was > 6.31 µM (inactive).
With Cc1ccccc1-c1cc2c(nn1)-c1ccccc1C2=O the AC50 [1] was 6.85 µM (active), the CC50 [2] was 36.2 µM (active) and the IC50 (cells) was 14.7 µM (active).

From ChEMBL document CHEMBL1201862, “PubChem BioAssay data set” (2004)
